The source of these data is US4724236A, “5,11-dihydro-6H-pyrido(2,3-B)(1,4)benzodiazepin-6-ones substituted in the 11-position, processes for preparing them and pharmaceutical compositions containing these compounds” (Karl Thomae GmbH, priority 1985, dated 1988).

For orientation: ED50 means the dose at which the effect has come halfway, by size or by number of responders. Low values mean an effect at a small dose, high ones a need for a large dose. Broadly, the IC50 is the midpoint of a concentration-inhibition curve.

The test system of data set [1] is heart rate, conscious dog. Nature of the data set: Heart rate-increasing activity (tachycardia) in the conscious dog. The data set is classed as in vivo. The settings on record: Canis lupus familiaris, iv, dose for increase of 50 beats/minute, 3 to 5 dogs, read-out: Tachycardia (dog) ED50. On the procedure:
1. tachycardiac effect in conscious dogs,
1. Heart rate-increasing activity in the conscious dog
The substances were injected intravenously and the heart rate was recorded using a tachygraph. After a control interval, increasing doses of the compound were administered in order to increase the heart rate. The next dose was injected when the effect of the preceding dose was no longer visible. The dosage of a substance which brought about an increase of 50 beats/minute (ED50) was determined graphically. Each substance was tested on 3 to 5 dogs.

The test system of data set [2] is oxotremorin-induced saliva secretion. Put plainly: Inhibition of oxotremorin-stimulated salivation in the rat. It is filed as in vivo. Particulars: iv, 15 minutes before oxotremorin 0.083 mg/kg i.v. On the procedure: 2. inhibition of salivation stimulated by oxotremorin in the rat and
2. Inhibition of salivation in the rat
10 female albino rats (strain Crl:COBS-CD (SD) BR) having a body weight from 120 to 150 g, were used for each treatment group, and 24 hours before the start of the test the rats were deprived of food but given free access to drinking water.
In order to determine the muscarinic effect of oxotremorin on each of the symptoms being investigated in preliminary tests, a dosage-activity curve was drawn up with at least 3 dosages for each symptom.
When testing antimuscarinic substances, the oxotremorin dose used was that which had triggered the symptom to be influenced in 90 to 100% of the animals in the preliminary test 5.
Secretion of saliva: 0.083 mg/kg i.v.
Each antimuscarinic substance was administered intraveneously in uniformly graduated dosages 15 minutes before the administration of oxotremorin. Control groups were given the solvent and suspension agent in corresponding amounts instead of the test substance.
The results were expressed as the percentage inhibition of the oxotremorin effect (percentage of animals without the symptom in question). ED50 values were determined by the method of LITCHFIELD and WILCOXON (J. Pharmacol. Exp. Ther. 96, 99, 1949).

Data set [3] relates to pupil size. Nature of the data set: Mydriatic effect on the rat (increase in pupil size). It is filed as in vivo. Particulars: i.v.; printed as ED50 in Table I; method defines ED200 (dose doubling pupil diameter). On the procedure: 3. Mydriatic activity in the rat.
3. Mydriatic effect on the rat
The mydriasis was determined by measuring the increase in pupil size after intravenous injection of the test substance. The pupil size was measured with a microscope. The measurements were taken before and at various times (15, 45 and 75 minutes) after the injection of different doses of the substance. The results were expressed as the ED200. That is the dose which doubled the diameter of the pupil, compared with the basal value. The maximum effect was usually observed between 15 and 45 minutes after intravenous administration.

The target in data set [4] is muscarinic receptors (cortex). Nature of the data set: Binding to muscarinic receptors, cerebral cortex (3H-NMS displacement). Particulars: rat cerebral cortex homogenate, pH 7.4, 30° C., 45 minutes, read-out: Receptor binding test IC50, Cortex. On the procedure: (§1) B. Studies of binding to muscarinic receptors: determining the IC50 value
(§2) Male Sprague-Dawley rats weighing from 180-220 g served as organ donors. After the heart, stomach and cerebral cortex had been removed, all other procedures were carried out in ice-cold Hepes-HCl buffer (pH 7.4; 100 m molar NaCl, 10 m molar MgCl2). The whole heart was cut up with scissors. All the organs were then homogenised in a Potter apparatus.
(§3) For the binding test the homogenised organs were diluted as follows:
(§4) The homogenised organs were incubated at a specific concentration of the radioactive ligand and a series of concentrations of the non-radioactive test substances in an Eppendorf centrifugal test tube at 30° C. The period of incubation was 45 minutes. 0.3 micro-mol of ^3 H-N-methylscopolamine (^3 H-NMS) was used as the radioactive ligand. After incubation had been ended by centrifuging at 14000 g, the radioactivity in the pellet was determined. It represents the sum of specific and non-specific binding of ^3 H-NMS. The proportion of non-specific binding was defined as the radioactivity which was bound in the presence of 1 micro-mol of quinuclidinyl benzylate. Fourfold measurements were taken in each case. The IC50 values of the non-labelled test substances were determined graphically. […]

The target in data set [5] is T1, muscarinic receptors (heart) (Rattus norvegicus, UniProt P10980).
T1 construct: The whole heart was cut up with scissors; All the organs were then homogenised; from tissue; host or cells: rat whole heart homogenate (male Sprague-Dawley)
T1 sequence (P10980 1-466): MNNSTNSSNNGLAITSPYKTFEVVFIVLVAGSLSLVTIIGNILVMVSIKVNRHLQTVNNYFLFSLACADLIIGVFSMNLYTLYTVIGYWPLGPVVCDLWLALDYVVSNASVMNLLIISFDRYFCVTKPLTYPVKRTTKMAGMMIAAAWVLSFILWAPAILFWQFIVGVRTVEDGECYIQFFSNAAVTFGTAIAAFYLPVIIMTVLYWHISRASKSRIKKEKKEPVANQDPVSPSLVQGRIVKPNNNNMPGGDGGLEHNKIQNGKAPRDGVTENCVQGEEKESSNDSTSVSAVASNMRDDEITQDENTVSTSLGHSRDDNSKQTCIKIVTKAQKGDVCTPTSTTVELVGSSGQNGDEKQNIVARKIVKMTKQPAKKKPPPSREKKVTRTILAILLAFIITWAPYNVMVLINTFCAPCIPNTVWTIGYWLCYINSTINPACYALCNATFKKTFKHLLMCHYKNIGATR
Nature of the data set: Binding to muscarinic receptors, heart (3H-NMS displacement). Particulars: rat whole heart homogenate, pH 7.4, 30° C., 45 minutes, read-out: Receptor binding test IC50, Heart. The protocol:
as §1, §2, §3, §4

In data set [6] the test system is platelet clots (mesenterial vein). Nature of the data set: Effect on platelet clots in rats (electrically induced mesenterial clots, Poliwoda et al.). It is filed as in vivo, rat. On the procedure: Effect on platelet clots in the rats
Essentially the method described by Poliwoda, Lilli, Hagemann, Schyma, in Z. ges. exp. Med. 145, 252, (1968) was used.
Male SPF rats (Chbb:THOM) weighing from 70 to 90 g, given free access to food (Altromin®), and water up until the start of the test, were anaesthetised with Nembutal administered by intraperitoneal route (50 to 60 mg/kg of pentobarbital-Na). In order to avoid hypothermia they were kept on a heated test bench (37° C.).
After the abdomen had been opened up with a transverse cut the loop of small intestine was taken out and fixed and a mesenterial vein with a diameter of 300 microns was placed under a binocular operation microscope with ×40 magnification. A monopolar V4A steel electrode embedded in glass, with a diameter of 100 microns at the tip, was applied to the vein as stimulating cathode. The anode was applied to the same vessel opposite the cathode. Stimulation was effected with 150 volts of direct current for a period of 100 microsec. After stimulation, the observation area was continuously rinsed with warm (37° C.) physiological saline solution.
The formation and growth of the clot was monitored under the microscope over a period of 20 minutes. Throughout the entire observation period, the percentage narrowing of the diameter of the vessel by the clot was determined and noted initially at 10 second intervals and later every minute. The results were recorded in terms of time in a coordinate system. […]
The area under the curve of the animals treated with the test substance was compared with that of the control animals. The reduction of the size of the clot under the influence of the substance was determined as the percentage reduction in the average value of the area under the curve of the substance-treated animals over the entire observation period compared with the average value of the controls.
The significance of the reduction was calculated by Student's t test for independent random samples (CAVALLI-SFORZA: Biometrie, G. Fischer-Verlag, Stuttgart 1969, page 72).

With `O=C1Nc2cccnc2N(C(=O)CCC#CCN2CCCCC2)c2ccccc21` [Substance A, 5,11-dihydro-11-[1-oxo-6-(1-piperidinyl)-4-hexynyl]-6H-pyrido[2,3-b][1,4]benzodiazepin-6-one], in data set [1], the ED (50 beats/min increase) is 0.044 mg/kg. For the same molecule, in data set [2], the 50% effect level (ED50) was put at a dose of 2.05 mg/kg. Moreover, the “Mydriasis (rat) ED200 (dose doubling pupil diameter)” value in data set [3] is on record as ~ 3000 micro g/kg. Also, the IC50 amounted to 1.2 µM in data set [4] and 0.12 µM in data set [5].
For `O=C1Nc2cccnc2N(C(=O)CCC#CCN2CCCCCC2)c2ccccc21` [Substance B, 5,11-dihydro-11-[1-oxo-6-(hexahydro-1H-azepin-1-yl)-4-hexynyl]-6H-pyrido[2,3-b][1,4]benzodiazepin-6-one], in that order: 0.028 mg/kg, 1.14 mg/kg, 2189 micro g/kg, 0.22 µM and 0.03 µM.
For `CC(CC#CCN1CCN(C)CC1)C(=O)N1c2ccccc2C(=O)Nc2cccnc21.Cl.Cl` (stereo not shown) [Substance C in form of dihydrochloride, 5,11-Dihydro-11-[1-oxo-2-methyl-6-(4-methyl-1-piperazinyl)-4-hexynyl]-6H-pyrido[2,3-b][1,4]benzodiazepin-6-one dihydrochloride], the “"area under curve" units of area, average ± SD” value in data set [6] (1 mg/kg i.v., n = 5, 20 minutes, significant reduction, t test, p < 0.02, control 1736.0 ± 124.2) was 1230.0 ± 188.0 units of area. In addition, in data set [6] (1 mg/kg i.v., n = 5, from area under curve versus controls, p < 0.02), the “percentage reduction compared with controls (size of clot)” value is recorded as 29.2%. Also, the “antithrombotic activity (in words)” value in data set [6] (rats) is “marked antithrombotic activity”.
